From article PMC9948168, “Vanillin-Based Indolin-2-one Derivative Bearing a Pyridyl Moiety as a Promising Anti-Breast Cancer Agent via Anti-Estrogenic Activity” (ACS Omega, 2023)
Where two headings read alike, the source gives them in different places.

How the values were obtained:
[1] = tested on: MCF-7 breast cancer cells; set-up: method as in doi:10.1016/j.bionut.2013.04.001; details: cited from earlier work
[2] = tested on: estrogen-induced uterotrophic effect; test: In vivo anti-estrogenic (anti-uterotrophic) activity, immature rat model; set-up: species or system Wistar immature female rats; details: oral, 20 mg/kg (tamoxifen 20 mg/kg/day, 6j equimolar per method), 3 days, with estradiol 10 μg/kg/day s.c.; immature female rats
Protocol: The anti-estrogenic activity was assessed as previously described.[65]−[67] All experiments were carried out in accordance with the recommendations of the […] Animal Care and Use Committee. The experimental protocol was approved by “The Commission on the Ethics of Scientific Research”, Faculty of Pharmacy, Minia University (no. ES30/2021). 20-day-old Wistar immature female rats (40–50 g) from the animal care facility of Nahda University at Beni Suef (NUB) were allowed to acclimatize to lab conditions for 3 days before the experiment with free access to food and water. Estradiol was diluted in olive oil and subcutaneously injected on the loose dorsal skin in a dose of 10 μg/kg/day. […] Both compounds were dissolved in a mixture of DMSO, Tween 20, and saline (1:1:8, respectively) and orally administered. The rats were randomly assigned to […] (n = 6) subjected to daily s.c. injections of estradiol, except for the control group. […] On the 4th day, all rats were sacrificed by cervical dislocation, and the uteri were dissected free of fat and weighed immediately. […] The results were expressed as percent inhibition from the formula [drawing 1] […] It is noteworthy that doses of the tested compounds are calculated on a molar basis. […] Values are expressed as mean ± SEM.

[3] = iCELLigence real-time cell analysis; type: cell-based, human; details: human, MCF-12A, 20 μM, relative to control, read-out: cell viability (% ± SEM)
Protocol: (§1) Therefore, compound 6j was applied in serial doses (2, 5, 10, 20, 50, and 100 μM) to MCF-7 cells and parallel to MCF-12A cells to determine the selectivity and safety. The treatments were performed 24 h after seeding the cells on system-specific biosensor-based plates. A total of 120 h of analyses were monitored, with cell viability measurements taken every 15 min. […] In addition, the viability percentage values for each dose in these periods were calculated and are summarized in Table 3 for MCF-7 and Table 4 for MCF-12A. […] In these treatments, cells were not killed dramatically after adding the highest two doses of 6j (100 and 50 μM); instead, they entered the stationary phase.
(§2) MCF-7 (Cat. no. HTB-22) (human estrogen receptor-positive breast cancer) and MCF-12A (Cat. no. CRL-10782) (human non-tumorigenic mammary epithelial) cell lines were obtained from the American Type Culture Collection (ATCC, Rockville, Maryland, USA). MCF-7 cells were maintained in Dulbecco’s modified Eagle’s medium (DMEM) (Biological Industries, Haemek, Israel) supplemented with 10% heat-inactivated fetal bovine serum (FBS) (Biowest, Nuaillé, France), 2 mM L-glutamine (Biological Industries, Haemek, Israel), 100 U/mL penicillin and 100 μg/mL streptomycin (Gibco, Waltham, MA, USA), and 2.5 μg/mL plasmocin (Invivogen, Toulouse, France) at 37 °C in a 5% CO2 humidified incubator. MCF-12A cells were cultured in a DMEM/F-12 Nutrient Mixture (Ham) (DMEM/F12 1:1 with HEPES and L-glutamine) (Gibco, Waltham, MA, USA) with 10% heat-inactivated FBS, 100 U/mL penicillin, 100 μg/mL streptomycin, and 10 μg/mL insulin (Humulin R, Lilly, Indianapolis, USA), 20 ng/mL epidermal growth factor (Abcam, Cambridge, UK), […] hydrocortisone (Dekort, Deva Ilac, Istanbul, Turkey), and 2.5 μg/mL plasmocin in a humidified atmosphere of 5% CO2 at 37 °C. The cells were routinely cultured in cell culture flasks and checked regularly under an inverted microscope. Cells reaching 80% confluency were passaged by treatment with 0.25% trypsin–EDTA. Total cell numbers were counted by the trypan blue dye exclusion method using a hemocytometer prior to the experiments.
(§3) The iCELLigence real-time cell analysis system was used to conduct a real-time and label-free examination of the activities of compound 6j on cells as we previously described.[62] In brief, following a background measurement with 200 μL of complete medium on iCELLigence E-plate L8, 100 μL of MCF-7 or MCF-12A cells was seeded at a density of 5.0 × 10^3 per well. During the 120 h monitoring, the system took impedance measurements via biosensors every 15 min. At the 24th h of incubation, the cells were treated with increasing concentrations of the 6j compound (2, 5, 10, 20, 50, and 100 μM) in duplicate. For cell culture experiments, compound 6j was dissolved in DMSO (Sigma, St. Louis, USA) at a stock concentration of 20 mM. For treatments, dilutions were prepared from 20 mM stock with a cell growth medium, with a final DMSO concentration of 0.1%. The medium containing 0.1% DMSO was also used as a negative control. […] Data were recorded by the iCELLigence software for 120 h and analyzed at the end of the study.

MCF-7 cells = test: iCELLigence real-time cell analysis; type: cell-based, human; details: Homo sapiens, MCF7, MCF-7, 20 μM, relative to control, read-out: cell viability (% ± SEM)
Protocol: as §1, §2, §3

SMILES | IC50 [1] | anti-uterotrophic activity (inhibition of estrogen-induced uterine weight) [2] | viability at 72 h, 20 µM ([3]; MCF-12A cells (non-tumorigenic mammary epithelial), 72 h) | viability at 96 h, 20 µM ([3]; MCF-12A cells (non-tumorigenic mammary epithelial), 96 h) | viability at 24 h, 20 µM ([3]; MCF-12A cells, 24 h) | viability at 48 h, 20 µM ([3]; MCF-12A cells, 48 h) | viability at 20 µM (MCF-7 cells; 24 h) | viability at 20 µM (MCF-7 cells; 48 h) | viability at 20 µM (MCF-7 cells; 72 h) | viability at 20 µM (MCF-7 cells; 96 h)
COc1ccc(C(=O)/C=C2/C(=O)Nc3ccc(Cl)cc32)cc1OC [Compound III] | 3.59 µM | – | – | – | – | – | – | – | – | –
CC/C(=C(\c1ccccc1)c1ccc(OCCN(C)C)cc1)c1ccccc1 [tamoxifen, reference compound] | – | 50% | 84 ± 0.01% | 84 ± 0.01% | 84 ± 0.01% | 84 ± 0.01% | 86.84 ± 0.02% | 86.84 ± 0.02% | 85.59 ± 0.04% | 80.31 ± 0.07%
